We go through 2 substances from patent US20210052701A1, “Methods of Treating Vascular Leakage Using CXCL12 Peptides” (The Medical College of Wisconsin, Inc., priority 2018, published 2021).

Where no end group is shown, it is not given here. [ ]: non-standard residue; d: D form. sY = N[C@@H](Cc1ccc(OS(=O)(=O)O)cc1)C(=O)O

For assay [1], the system named is hPPAEC. Put plainly: In vitro vascular permeability assay (FITC-dextran), hPPAEC monolayer, CXCR4/ACKR3 ligands without thrombin. Format: cell-based, human. The settings on record: 50 nM ligand for 10 min, then FITC-dextran; no thrombin. As to the method: FIGS. 1A-1B show expression of CXCR4, ACKR3 and CXCR4:ACKR3 heteromers on hPPAEC and effects of CXCR4/ACKR3 ligands on hPPAEC monolayer permeability. (A) Detection of CXCR4, ACKR3 and CXCR4:ACKR3 heteromers on hPPAEC by PLA. Typical PLA images for the detection of individual receptors and CXCR4:ACKR3 heteromers. Images show merged PLA/40,6-diamidino-2-phenylindole dihydrochloride (DAPI) signals. Ctrl: Omission of one secondary antibody. (B) hPPAEC were grown to a confluent monolayer on collagen-coated permeable membranes. Cells were then exposed to vehicle or 50 nM of CXCR4/ACKR3 ligands for 10 minutes, as indicated, followed by the addition of FITC-dextran. Endothelial permeability was assessed by measuring the amount of FITC-dextran that permeated through the cell monolayer. N=3 in quadruplicate. No cells: 100% permeability, open squares. RFU: Relative fluorescence units. *: p<0.05 vs. vehicle (2-way ANOVA/Bonferroni's multiple comparison post hoc test).
Cells and cell lines—Human primary pulmonary artery endothelial cells (hPPAEC) (ATCC, PCS-100-022) and the human lung microvascular endothelial cell line HULEC-5a (ATCC, CRL-3244) were cultured in vascular cell basal medium (ATCC, PCS-100-030) with endothelial cell growth kit-VEGF (ATCC, PCS-100-041). The HTLA cell line, a HEK293 cell line stably expressing a tTA-dependent luciferase reporter and a β-arrestin2-TEV fusion gene, was generously provided by the laboratory of Dr. Bryan Roth and maintained in high glucose Dulbecco's Modified Eagle's Medium supplemented with 10% (vol/vol) FBS, 1× non-essential amino acids, 100 U/mL penicillin, 100 μg/mL streptomycin, 50 μg/mL hygromycin B, and 2 μg/mL puromycin. All cells were cultured at 37° C., 5% CO2 in a humidified atmosphere.
(§1) In vitro vascular permeability assays—Permeability assays were obtained from Millipore (ECM642) and performed as per manufacturer's instructions. In brief, 96-well collagen-coated permeability assay plates were pre-hydrated for 15 min, 5×10^5 cells were seeded on each well and grown to a confluent monolayer for 48 hours. Fluorescein isothiocyanate (FITC)-dextran (20 μg/mL) was then added on top of the monolayer and the amount of FITC-dextran that permeated through the monolayer was quantified by measuring fluorescence in a Synergy 2 Multi-mode Microplate Reader (BioTek, Winooski, Vt.) at various time points over a 255 min time period.

In assay [2] the test system is hPPAEC. In words: Effects of CXCR4 agonists / CXCL12 variants on thrombin-induced impairment of hPPAEC monolayer permeability. Format: cell-based, human. The protocol:
FIGS. 3A-3D show effects of CXCL12 and ubiquitin on thrombin-induced impairment of hPPAEC monolayer permeability. hPPAEC were grown to a confluent monolayer on collagen-coated permeable membranes. (A) hPPAEC were pre-treated with vehicle, 100 nM of CXCL12 or ubiquitin for 10 minutes, as indicated, and then exposed to thrombin (50 nM), followed by the addition of FITC-dextran. Vehicle: no thrombin. Endothelial permeability was assessed by measuring the amount of FITC-dextran that permeated through the cell monolayer. No cells: 100% permeability (open circles). RFU: Relative fluorescence units. N=3 in quadruplicate. *: p<0.05 vs. vehicle/thrombin. (B-D) hPPAEC were exposed to 35 nM of thrombin or vehicle. After 10 min, thrombin-exposed cells were treated with vehicle, CXCL12 (50 nM) and/or AMD3100 (10 μM) (B), with vehicle, ubiquitin (50 nM) and/or AMD3100 (10 μM) (C) or with various concentrations of ubiquitin (D) followed by the addition of FITC-dextran. The experimental conditions are indicated. Endothelial permeability was assessed by measuring the amount of FITC-dextran that permeated through the cell monolayer. RFU: Relative fluorescence units. N=3 in quadruplicate. *: p<0.05 vs. thrombin/vehicle (2-way ANOVA/Bonferroni's multiple comparison post hoc test).
FIGS. 7A-7D show dose-dependent effects of CXCL12α/β, CXCL12 (3-68) and CXCL12 mutants K27A/R41A/R47A, R47E and S-S4V on thrombin-induced impairment of hPPAEC monolayer permeability. hPPAEC cells were grown to a confluent monolayer on collagen-coated permeable membranes. hPPAEC were then exposed to 35 nM of thrombin. After 10 min, thrombin-exposed cells were treated with vehicle or 50 nM (A), 5 nM (B), 0.5 nM (C) or 0.05 nM (D) of the various proteins, as indicated. In (D) 5 nM CXCL12a was used as a positive control. N=3 in quadruplicate.
FIGS. 8A-8D show dose-dependent effects of CXCL12α, CXCL121 and CXCL122 on thrombin-induced impairment of hPPAEC monolayer permeability. hPPAEC cells were grown to a confluent monolayer on collagen-coated permeable membranes. hPPAEC were then exposed to 35 nM of thrombin. After 10 min, thrombin-exposed cells were treated with vehicle or 50 nM (A), 5 nM (B), 0.5 nM (C) or 0.05 nM (D) of the various proteins, as indicated. In (D) 5 nM CXCL12α was used as a positive control. N=3 in quadruplicate.
FIGS. 9A-9B show inhibition of thrombin-induced hyper-permeability of hPPAEC by CXCL12/CXCL12 variants. % inhibition: % inhibition of thrombin-induced hyperpermeability. Data from FIGS. 7 and 8 at t=255 min. N=3 in quadruplicate. *: p<0.05 vs. CXCL12a (2-way ANOVA/Bonferroni's multiple comparison post hoc test).
as §1

The subject of the next assay is HULEC-5a. Put plainly: Effects of CXCL12 and ubiquitin on thrombin-induced impairment of HULEC-5a monolayer permeability. It is filed as cell-based, human. Conditions: thrombin 50 nM, after 10 min 50 nM ligand. The protocol:
FIGS. 4A-4D show effects of CXCL12 and ubiquitin on thrombin-induced impairment of HULEC-5a monolayer permeability. (A) HULEC-5a were grown to a confluent monolayer on collagen-coated permeable membranes and then exposed to different concentration of thrombin for 10 min, followed by the addition of FITC-dextran. Endothelial permeability was assessed by measuring the amount of FITC-dextran that permeated through the cell monolayer. No cells: 100% permeability. RFU: Relative fluorescence units. N=3 in quadruplicate. (B) Dose-response curves for thrombin-induced permeability, data from A. 100% permeability=permeability in the absence of HULEC-5a. Open squares: Permeability at t=55 min. Light grey squares: Permeability at t=135 min. Dark grey squares: Permeability at t=255 min. […] Endothelial permeability was assessed by measuring the amount of FITC-dextran that permeated through the cell monolayer. RFU: Relative fluorescence units. […]
In vitro vascular permeability assays—Permeability assays were obtained from Millipore (ECM642) and performed as per manufacturer's instructions. […] Fluorescein isothiocyanate (FITC)-dextran (20 μg/mL) was then added on top of the monolayer and the amount of FITC-dextran that permeated through the monolayer was quantified by measuring fluorescence in a Synergy 2 Multi-mode Microplate Reader (BioTek, Winooski, Vt.) at various time points over a 255 min time period.

The target in the next assay is CXCL12 (Homo sapiens, UniProt P48061). In words: CXCL12 dimerization (biophysical measurements). It is filed as binding. Conditions: sulfopeptide bound to the sTyr21 recognition site. From the text: The present invention provides a constitutively monomeric CXCL12 variant (CXCL121) engineered to resist peptide-induced dimerization by maintaining steric repulsion of the chemokine helix. Six short CXCR4 peptides, centered on Tyr7, Tyr12, or Tyr21, were synthesized to study the contributions of individual sulfotyrosines in peptide binding and specificity. Peptides were titrated into CXCL12WT, CXCL122 (a constitutively dimeric variant of CXCL12 containing L36C/A65C mutations), or CXCL121 and the interaction was monitored by 2D NMR. While sulfopeptides encompassing sTyr7 and sTyr12 interacted nonspecifically, an […] Tyr7 peptide induced a new set of chemical shift perturbations in the CXCL12 monomer that were also observed upon binding of the intact CXCR41-38 N-terminal domain.
Chain of CXCL12 (P48061 22-89 limits assumed): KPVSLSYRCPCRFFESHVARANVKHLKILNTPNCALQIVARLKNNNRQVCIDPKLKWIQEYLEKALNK

In the case of ubiquitin, in the assay on hPPAEC [1], the “effect on hPPAEC monolayer permeability” value is “did not affect hPPAEC permeability”. For the same substance, the “effect of pre-treatment on thrombin-induced hyper-permeability of hPPAEC” value with hPPAEC [2] (100 nM for 10 min, then thrombin (50 nM)) is given as “significantly attenuated thrombin-induced hyper-permeability of hPPAEC”. In addition, the “effect on thrombin-induced permeability of hPPAEC when added after thrombin” value with hPPAEC [2] (thrombin 35 nM, after 10 min CXCL12 or ubiquitin 50 nM, AMD3100 10 μM) is on record as “did not modulate thrombin-induced hyper-permeability”. Also, the “effect on thrombin-induced hyper-permeability at various concentrations” value with hPPAEC [2] (thrombin 35 nM, ubiquitin 30 nM-3 μM after thrombin) was “did not attenuate thrombin-induced hyper-permeability”. Further, the “effect on thrombin-induced hyper-permeability, ubiquitin plus AMD3100” value in the assay with hPPAEC [2] (thrombin 35 nM, ubiquitin 50 nM plus AMD3100 10 μM) is given as “did not modulate thrombin-induced hyper-permeability”. The “effect on thrombin-mediated impairment of HULEC-5a barrier function when added after thrombin” value in the assay with HULEC-5a was “significantly reduced thrombin-mediated impairment of endothelial cell barrier function”.
For the substance “sTyr21 sulfopeptide: short CXCR4 peptide centered on sulfated Tyr21 (SGD[sY]DSM)”, in the assay with CXCL12, the “increase of the CXCL12 dimerization affinity” value is on record as “eight-fold”.
